# Assays:
# [1] = test system: LDL, isolated from human plasma; assay: Chemical (Cu++) oxidation of LDL, conjugated diene formation at 234 nm; type: biochemical; design: Lag time of LDL oxidation: unit not given here
# Procedure: The ability of Lercanidipine to function as an antioxidant was evaluated by incubating LDL, isolated from human plasma, for 22 hours with an oxidizing agent (20 μM Cu++) in the presence of different concentrations of the test compounds (0.01 μM-50 μM). The LDL oxidation was followed by monitoring conjugated diene formation with a ultraviolet (UV) spectrometer at 234 nm.
# The experimental conditions were as follows. LDL (d=1.019-1.063) were isolated from human pooled plasma by sequential ultracentrifugation at 4° C. and 40,000 rpm in a 50 Ti rotor, using a L5-50 ultracentrifuge (Beckman, Palo Alto, Calif.). The LDL were then dialyzed against 0.15 M NaCl containing 0.01% ethylenediaminetetraacetic acid pH 7.4, sterilized by filtration through a […] millipore filter and stored at 4° C. under nitrogen in the dark until use (up to 3 weeks). Before use, LDL were dialyzed against ethylenediaminetetraacetic acid free phosphate buffered saline, pH 7.4, on Sephadex G-25 columns (PD-10, Pharmacia Fine Chemicals, Uppsala, Sweden). Then the LDL were filtered through a sterile 0.22 μM filter. In a phosphate buffered saline (50 μg lipoprotein protein/ml), the LDL were oxidized by incubation at 25° C. with 20 μM CuSO4 for 3 hours. The lercanidipine solution was prepared as a 10^-2 M stock solution in methanol or ethanol and added as a methanol or ethanol solution (maximum 1% v/v) prior to addition of the copper solution. The effect of lercanidipine on the oxidation of LDL was determined by continuous monitoring of the formation of conjugated dienes by recording the increase in the absorbance at 234 nm at 5 min intervals during a three hour period, against a phosphate buffered saline blank, using a UV spectrophotometer (Beckman DU 640) equipped with a continuous reading and an automatic 6-cell changer. The time prior to the onset of oxidation (lag time) was calculated as the intercept between the line of the maximum slope of the propagation phase and the x-axis.
# rat myocytes = assay: Arterial myocyte migration, micro chemotaxis chamber with fibrinogen; type: cell-based; details: 5 hours, fibrinogen 600 μg/ml, FIG. 2
# Procedure: Migration of rat myocytes was examined using a 48-well micro chemotaxis chamber (Neuro-Probe, USA). Freshly trypsinized myocytes prepared according to the procedure in Example 4A were suspended in a medium supplemented with 5% fetal calf serum (assay medium). The lower wells, containing 27 μl of the assay medium that included fibrinogen (600 μg/ml) as chemotactic agent, were covered with a polyvinylpyrrolidone-free polycarbonate filter ([…]). Fifty μl of the cell suspension (1×10^6 cells/ml) were placed in the upper compartment with the tested compounds. Incubation was carried out for 5 hours at 37° C. in an atmosphere of 95% air and 5% CO2.
# After incubation the filter was removed from the chamber and non-migrated cells were scraped from the upper surface, and the filters washed with phosphate buffered saline three times. The filters were stained with Diff-Quik (Merz-Dade AG, Switzerland). The number of myocytes per 100×high power field that had migrated to the lower surface of the filters was determined microscopically. Six high power fields were counted per sample and the results were averaged.
# enzyme ACAT = molecular target: T1, enzyme ACAT (Mus musculus, UniProt Q61263); assay: Cholesterol esterification induced by AcLDL in mouse peritoneal macrophages; type: cell-based; details: FIG. 3
# T1 construct: Mouse peritoneal macrophages were obtained by peritoneal lavage from mice; endogenous in cells; host or cells: peritoneal macrophages of Balb/c mice, three days after intraperitoneal thioglycolate
# T1 sequence (Q61263 1-540): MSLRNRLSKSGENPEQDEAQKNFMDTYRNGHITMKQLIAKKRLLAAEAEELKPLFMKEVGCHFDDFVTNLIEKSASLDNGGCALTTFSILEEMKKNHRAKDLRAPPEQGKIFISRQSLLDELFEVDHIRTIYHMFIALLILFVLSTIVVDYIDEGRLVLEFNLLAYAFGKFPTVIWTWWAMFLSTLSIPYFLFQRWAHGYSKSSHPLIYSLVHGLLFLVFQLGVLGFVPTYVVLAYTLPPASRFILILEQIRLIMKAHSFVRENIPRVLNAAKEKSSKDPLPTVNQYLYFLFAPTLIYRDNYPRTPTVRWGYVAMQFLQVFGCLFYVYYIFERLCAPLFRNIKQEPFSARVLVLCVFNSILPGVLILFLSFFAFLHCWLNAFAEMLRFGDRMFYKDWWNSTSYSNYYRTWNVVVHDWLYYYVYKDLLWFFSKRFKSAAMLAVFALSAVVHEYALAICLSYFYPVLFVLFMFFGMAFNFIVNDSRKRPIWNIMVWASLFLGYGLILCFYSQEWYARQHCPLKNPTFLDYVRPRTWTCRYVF
# Procedure: Cholesterol esterification induced by AcLDL in mouse peritoneal macrophages was investigated as follows. Mouse peritoneal macrophages were obtained by peritoneal lavage from mice (Balb/c Charles River, Calco, Italy) three days after intraperitoneal injection of thioglycolate. Cells (2×3×10^6) were plated in 35 mm wells with Dulbecco's minimum essential medium containing 10% fetal bovine serum. After 3 hours, the dishes were washed to eliminate unattached cells and maintained in Dulbecco's minimum essential medium plus 10% fetal bovine serum for 24 hours before use. After cell plating, experiments were performed at 37° C. in serum free Dulbecco's minimum essential medium containing 0.2% essentially fatty acid-free bovine serum albumin, AcLDL, a specific ACAT inhibitor, S-58035 (See C. A. Ross et al., J. Biol, Chem. 259: 815-819 (1984)), and lercanidipine, or the lercanidipine enantiomers indicated. Human LDL (d=1.019-1.063 g/ml) were isolated from plasma of healthy volunteers by sequential ultracentrifugation (Beckman L5-50, Palo Alto, Calif.). […] Trichloroacetic acid non-precipitable radioactivity was below 2% of total. […] Cholesterol esterification was measured after addition of [1-^14 C] oleic acid (0.68 mCi sample) complexed with bovine serum albumin during the last 1 or 2 hours of incubation by subsequent determination of radioactivity associated with cellular cholesteryl esters.
Structure (SMILES),"Lag time of LDL oxidation ([1]; 0.5 μM, 20 μM Cu++)","Lag time of LDL oxidation ([1]; 1.0 μM, 20 μM Cu++)","Lag time of LDL oxidation ([1]; 2.5 μM, 20 μM Cu++, P < 0.05)","Lag time of LDL oxidation ([1]; 5.0 μM, 20 μM Cu++, P < 0.01)",increase of the lag time for LDL oxidation ([1]; 10 μM),"Lag time of LDL oxidation ([1]; 10.0 μM, 20 μM Cu++, P < 0.01)",concentrations significantly suppressing the onset of LDL oxidation ([1]; 20 μM Cu++),potency relative to lacidipine (LDL oxidation) ([1]; assays herein),inhibition of myocytes migration (rat myocytes),"relative potency, cholesterol esterification (enzyme ACAT)"
"COC(=O)C1=C(C)NC(C)=C(C(=O)OC(C)(C)CN(C)CCC(c2ccccc2)c2ccccc2)C1c1cccc([N+](=O)[O-])c1 (racemic) [LE, methyl 1,1,N-trimethyl-N-(3,3-diphenylpropyl)-2-aminoethyl 1,4-dihydro-2,6-dimethyl-4-(3-nitrophenyl)-pyridine-3,5-dicarboxylate]",45.2 ± 3.7,49.8 ± 4.7,53.6 ± 3.3,73.2 ± 4.8,more than 2 times,112.7 ± 5.2,greater than or equal to 2.5 μM,one order of magnitude higher,,
"COC(=O)C1=C(C)NC(C)=C(C(=O)OC(C)(C)CN(C)CCC(c2ccccc2)c2ccccc2)[C@@H]1c1cccc([N+](=O)[O-])c1 [(R)-LE, (R)-(-)METHYL 1,1-N-TRIMETHYL-N-(3,3-DIPHENYLPROPYL)-2-AMINOETHYL 1,4-DIHYDRO-2,6-DIMETHYL-4-(3-NITROPHENYL)PYRIDINE-3,5-DICARBOXYLATE]",,,,,,,,,most pronounced effect,most potent compound

# Reference: patent publication US5912351A, “Anhydrous 1,4-Dihydropyridines and salts thereof” (Recordati, S.A. Chemical and Pharmaceutical Company, priority 1995, dated 1999)
